Results taken from ChEMBL document CHEMBL5131427, “Targeted Discovery of Amantamide B, an Ion Channel Modulating Nonapeptide from a South China Sea Oscillatoria Cyanobacterium” (J Nat Prod, 2022).
Active and inactive are the calls of the source. No cut-off for these calls is given here. Square brackets hold non-standard residues; d marks the D form. Peptide text beside a SMILES is read from it. * marks the point of attachment. dNMeF = CN[C@H](Cc1ccccc1)C(=O)O; NMeL = CN[C@@H](CC(C)C)C(=O)O; dNMeV = CN[C@@H](C(=O)O)C(C)C; Butyryl = CCCC(=O)*

Key:
[1] = Cytotoxicity against Swiss-Webster mouse primary neocortical neuron at 10 uM incubated for 45 min by multi minute duration test; assay type: toxicity, cell-based; conditions: 0.75 h
[2] = tested on: Primary neocortical neuron; test: Suppression of spontaneous calcium oscillation frequency in Swiss-Webster mouse primary neocortical neuron at 10 uM incubated for 45 min by Fluo-4 dye based; assay type: functional, cell-based
K562 = test: Cytotoxicity against human K562 cells measured after 72 hrs by MTT assay; assay type: functional, cell-based; conditions: K562, 72 h
U-937 = test: Cytotoxicity against human U-937 cells measured after 72 hrs by MTT assay; assay type: functional, cell-based; conditions: U-937, 72 h
CCRF-CEM = test: Cytotoxicity against human CCRF-CEM cells measured after 72 hrs by MTT assay; assay type: functional, cell-based

Structure (SMILES)	Activity [1]	Activity [2]	IC50 (K562) [µM]	IC50 (U-937) [µM]	IC50 (CCRF-CEM) [µM]
CCCC(=O)N(C)[C@H](C(=O)N(C)[C@@H](CC(C)C)C(=O)N[C@@H](CC(C)C)C(=O)N1CCC[C@H]1C(=O)N(C)[C@@H](C(=O)N[C@H](C(=O)NCC(=O)N(C)[C@H](Cc1ccccc1)C(=O)N1CCC[C@H]1C(=O)OC)[C@@H](C)CC)C(C)C)C(C)C	Non-Toxic	Active	21	7.3	5.6
CCCC(=O)N[C@H](C(=O)N(C)[C@@H](CC(C)C)C(=O)N[C@@H](CC(C)C)C(=O)N1CCC[C@H]1C(=O)N(C)[C@@H](C(=O)N[C@H](C(=O)NCC(=O)N(C)[C@H](Cc1ccccc1)C(=O)N1CCC[C@H]1C(=O)OC)[C@@H](C)CC)C(C)C)C(C)C (Butyryl-V[NMeL]LP[dNMeV]IG[dNMeF]P-OMe)	Non-Toxic	Active	> 25	6.1	8.3
Nc1cc(F)ccc1NC(=O)c1ccc(CNC(=O)/C=C/c2cccnc2)cc1 [TUCIDINOSTAT]			8.3	3.3	1
